Laboratory results published in US20140242609A1, “Diagnosis and treatment of kidney stones, methods and compositions therefor” (Washington University, priority 2013, published 2014).

Columns and labels:
[1] = system: CLDN16, CLDN19, TRPV5, TRPM6, NKCC2, ROMK, TSC, Klotho and VDR; experiment: gene expression of renal ion transporters in SAHA treated mouse kidneys (real-time PCR); type: in vivo; conditions: SAHA versus vehicle
Description: FIG. 25 illustrates gene expression analyses of renal ion transporters in SAHA versus vehicle treated mouse kidneys by real-time PCR. Values are shown as fold ratios relative to the vehicle level (as mean±SEM; n=5).
(§1) Total RNA including microRNA was extracted using Trizol (Invitrogen). Cellular mRNA was reverse transcribed using the Superscript-III kit (Invitrogen), followed by real-time PCR amplification using SYBR Green PCR Master Mix (Bio-Rad) and Eppendorf Realplex2S system. The design of claudin-14 primers was described before by Gong et al., 2012. The design of pri-miRNA primers and ChIP primers was according to Gong et al., 2013. Results were expressed as 2^−ΔCt values with ΔCT=Ctgene−Ctβ-actin.

[2] = circulating hormonal levels in SAHA treated mice (ELISA); type: in vivo, mouse; conditions: SAHA treatments versus vehicle
Method: FIG. 24 illustrates circulating hormonal levels in SAHA versus vehicle treated mouse kidneys. Serum PTH (A), 1,25-(OH)2-vitD3 (B) and FGF23 (C) levels were measured with ELISA and shown as mean±SEM, n=5.

CLDN14 mRNA = CLDN14 mRNA levels in primary cultures / freshly isolated mouse TALH cells (real-time PCR); type: cell-based; conditions: versus vehicle
Method: (§2) An immunomagnetic separation method was used to isolate the TAL cells from the mouse kidney (Hou et al., 2009). Antibodies against the TAL cell specific surface antigen, Tamm-Horsfall protein (THP), were coated onto the paramagnetic polystyrene beads (Dynabeads M-280; Dynal), allowing immunoprecipitation of the TAL cells from collagenase digested mouse kidneys. The isolated cells were plated in DMEM medium supplemented with 10% FBS, penicillin/streptomycin, and 1 mM sodium pyruvate for 16 hours, followed by immediate transfection with NFAT or antagomirs.
as §1, with “above.” for “before by Gong et al., 2012.”, “primers” for “primers and ChIP primers”, “Ma” for “Gong”, “(2010).” for “2013.”
as §2, with “TALH” for “TAL”, “kidney. (Gong Y,” for “kidney (Hou”, “al. 2012 and Gong Y, et al. 2013)” for “al., 2009).”, “protein,” for “protein (THP),”, “treatment.” for “transfection with NFAT or antagomirs.”
Total RNA including microRNA was extracted using Trizol (Invitrogen). Cellular mRNA was reverse transcribed using the Superscript-III kit (Invitrogen), followed by real-time PCR amplification using SYBR Green PCR Master Mix (Bio-Rad) and Eppendorf Realplex2S system. […] Results were expressed as 2^−ΔCt values with ΔCT=Ctgene−Ctβ-actin. […]
Total RNA including microRNA was extracted using Trizol (Invitrogen). […] Results were expressed as 2^−ΔCt values with ΔCT=Ctgene−Ctβ-actin. […]

[3] = 24 hr urinalysis in metabolic cages, plasma and urine electrolytes; type: in vivo, mouse
Method: Age (9-10 weeks old) and sex (male) matched wild-type and CLDN14 KO mice were housed individually in metabolic cages (Harvard Apparatus) with free access to water and food for 24 hr. Urine was collected under mineral oil. The plasma and urine Ca^++ and Mg^2+ levels were determined with atomic flame absorption spectrophotometer (PerkinElmer). The plasma (P) and urine (U) electrolyte levels were determined with the Roche Cobas clinical analyzer (Roche Diagnostics). […] The fractional excretion of electrolytes was calculated using the following equation: FEion=V×Uion/(GFR×Pion), where GFR was calculated according to the clearance rate of creatinine (GFR=V×Ucreatinine/Pcreatinine).
Mice were housed individually in metabolic cages (Harvard Apparatus) with free access to water and food for 24 hr. Urine was collected under mineral oil. The plasma and urine Ca^++ and Mg^++ levels were determined with atomic flame absorption spectrophotometer (PerkinElmer). The creatinine levels were measured with an enzymatic method that was independent of plasma chromogens.

[4] = cited from earlier work
[5] = WT pre-treated with furosemide 40 mg/kg BW−1 per day, Veh + Furo = furosemide alone

O=C(CCCCCCC(=O)Nc1ccccc1)NO [SAHA, Suberanilohydroxamic acid]
expression levels of other major Ca++/Mg++ transporters from the kidney [1]: nor did the inventors find any significant change | circulating 1,25-(OH)2-vitD3 levels [2]: None of these hormones changed | circulating FGF23 levels [2]: None of these hormones changed | circulating PTH levels [2]: None of these hormones changed | CLDN14 mRNA levels, downregulation (CLDN14 mRNA; 0.1 μM): 38% | CLDN14 mRNA levels, downregulation (CLDN14 mRNA; 0.33 μM): 54% | ECa ([3]; CLDN14 KO, same SAHA regimen): 1.20 ± 0.24 ug/24 hr · g | EMg ([3]; CLDN14 KO, same SAHA regimen): 6.50 ± 0.55 ug/24 hr · g | FECa ([3]; CLDN14 KO, same SAHA regimen): 0.45 ± 0.07% | FEMg ([3]; CLDN14 KO, same SAHA regimen): 9.90 ± 0.83% | PCa ([3]; CLDN14 KO, same SAHA regimen): 11.13 ± 0.34 mg/dL | PMg ([3]; CLDN14 KO, same SAHA regimen): 2.76 ± 0.05 mg/dL | ECa [3, 5]: 3.37 ± 0.75 ug/24 hr · g | EMg [3, 5]: 8.34 ± 2.15 ug/24 hr · g | FECa [3, 5]: 1.97 ± 0.38% | FEMg [3, 5]: 22.50 ± 6.40% | PCa [3, 5]: 9.95 ± 0.41 mg/dL | PMg [3, 5]: 2.20 ± 0.06 mg/dL | ECa ([3]; WT, SAHA 10 mg/kg BW−1 per day): 0.72 ± 0.26^□ ug/24 hr · g | EMg ([3]; WT, SAHA 10 mg/kg BW−1 per day): 3.16 ± 0.80^□□ ug/24 hr · g | FECa ([3]; WT, SAHA 10 mg/kg BW−1 per day): 0.27 ± 0.08^□□ % | FEMg ([3]; WT, SAHA 10 mg/kg BW−1 per day): 6.06 ± 1.71^□□ % | PCa ([3]; WT, SAHA 10 mg/kg BW−1 per day): 11.38 ± 0.44^□ mg/dL | PMg ([3]; WT, SAHA 10 mg/kg BW−1 per day): 2.71 ± 0.12^□ mg/dL | effect of chronic treatment on calcemia ([3]; chronic SAHA treatment): mild hypercalcemia

C[C@@H](NCCCc1cccc(C(F)(F)F)c1)c1cccc2ccccc12 [cinacalcet]
time to maximal serum concentration after oral administration ([4]; oral): 1.5 to 3 h | half-life of absorbed cinacalcet ([4]; serum): 30 to 40 h
